According to publication PMC10648349, “Aromatic Diboronic Acids as Effective KPC/AmpC Inhibitors” (Molecules, 2023):
≈ marks a conversion by molar mass, not a printed value.

Key:
C. krusei ATCC 6258 = test: antifungal activity (disc-diffusion, MIC, MFC); format: cell-based, Candida krusei; conditions: Pichia kudriavzevii, ATCC6258; for MIC: fluconazole by Etest
Method in brief: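 First, discs bearing 0.4 mg of compound in DMSO were tested for growth inhibition. Next, MIC was determined, followed by MBC for bacteria or MFC for yeasts, all per EUCAST and CLSI.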

E. coli 76 KPC-2(+) = test: MIC of tested agent alone, microdilution; format: cell-based; conditions: Escherichia coli; read-out: MIC of agent alone
Method in brief: (§1)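 Broth microdilution checkerboard: β-lactam in seven two-fold dilutions (1–64 mg/L) against tested agent or PBA in three two-fold dilutions (4–16 mg/L). Antibiotic MICs were read at each agent level, with agent-alone MICs run in parallel by microdilution.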

E. coli 77 CMY-2(+) [1] = test: MIC of tested agent alone, microdilution; format: cell-based; conditions: Escherichia coli; read-out: MIC of agent alone
Method in brief: as §1

[2] = system: K. pneumoniae 81 KPC-3(+); test: MIC of tested agent alone, microdilution; format: cell-based; conditions: Klebsiella pneumoniae; read-out: MIC of agent alone
Method in brief: as §1

[3] = system: K. pneumoniae 83 KPC-3(+), CTX-M-3(+); test: MIC of tested agent alone, microdilution; format: cell-based; conditions: Klebsiella pneumoniae; read-out: MIC of agent alone
Method in brief: as §1

[4] = system: K. pneumoniae ATCC BAA-1705 KPC-2(+); test: MIC of tested agent alone, microdilution; format: cell-based; conditions: Klebsiella pneumoniae, ATCCBAA1705; read-out: MIC of agent alone
Method in brief: as §1

[5] = system: P. aeruginosa MUW 700 AmpC(+); test: MIC of tested agent alone, microdilution; format: cell-based; conditions: Pseudomonas aeruginosa; read-out: MIC of agent alone
Method in brief: as §1

[6] = system: E. coli 76 KPC-2-positive; test: checkerboard microdilution, antibiotic plus tested agent; format: cell-based, Escherichia coli
Method in brief: (§2)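 β-lactam 1–64 mg/L × agent/PBA 4–16 mg/L checkerboard; meropenem vs carbapenemase producers, ceftazidime vs AmpC producer; imipenem, ertapenem added for selected agents. Readout: combination MICs, FICI (average and lowest); off-scale MICs taken as next doubling.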

[7] = system: K. pneumoniae 81 KPC-3-positive; test: as above; format: cell-based, Klebsiella pneumoniae
Method in brief: as §2

[8] = system: K. pneumoniae 83 KPC-3-positive, CTX-M-3-positive; test: as above; format: cell-based, Klebsiella pneumoniae
Method in brief: as §2

[9] = system: K. pneumoniae ATCC BAA-1705 KPC-2-positive; test: as above; format: cell-based, Klebsiella pneumoniae
Method in brief: as §2

[10] = system: P. aeruginosa MUW 700 cAmpC-positive; test: as above; format: cell-based, Pseudomonas aeruginosa
Method in brief: as §2

KPC producers = test: microdilution with carbapenems; format: cell-based
Description: To examine the ability of tested agents to inhibit various carbapenemases and AmpC-enzymes, their synergy with antibiotics against β-lactamase-producing strains was assessed by checkerboard microdilution assay, with slight modification. Checkerboards were prepared in microtiter plates, with seven two-fold dilutions of β-lactams (1–64 mg/L) in the rows and three two-fold dilutions of tested agents and PBA (4–16 mg/L) in the columns. Tested agents’ concentrations were limited to the concentrations at which the newest commercially available BLIs (vaborbactam, relebactam, and avibactam) are used in susceptibility testing. Plates were inoculated and incubated as in the MIC microdilution assay. Parallel, MICs of tested agents and PBA alone were determined by the microdilution assay. Following the incubation, antibiotic MICs in the presence of each agent’s concentration were determined. Moreover, for the first well without growth found in each checkerboard row and column along the growth/non-growth interface, the fractional inhibitory concentration index (FICI) was calculated using the formula below:FICI = [(MIC of antibiotic in combination)/(MIC of antibiotic alone)] + [(MIC of the tested agent in combination)/(MIC of tested agent alone)].
For calculations, all off-scale MICs were converted to the next-highest doubling concentration. Subsequently, both the average and the lowest FICI were interpreted. The interpretation was as follows: FICI ≤ 0.5, synergy; 0.5 < FICI ≤ 4, indifference and FICI > 4, antagonism. Primarily, examined combinations consisted of meropenem (Pol-Aura, Morag, Poland) plus tested agents against carbapenemases-producing strains and ceftazidime (Pol-Aura, Morag, Poland) plus tested agents against AmpC-producing strains. For agents that reduced meropenem MIC at least 4-fold for at least two tested strains, similar assays were performed with imipenem (Pol-Aura, Morag, Poland) and ertapenem (Pol-Aura, Morag, Poland).

E. coli 77 CMY-2(+) [11] = test: screening test of direct antimicrobial activity (STDA), disc-diffusion; format: cell-based; conditions: Escherichia coli; 0.3 mg per disc; - no zone; read-out: Diameter of inhibition zone around disc with tested agent
Description: (§3) Prior to combination disc tests, screening tests of direct antimicrobial activity (STDA) of the tested agent against β-lactamase-producing strains were performed by the disc-diffusion method. Discs with 0.3 mg, 0.1 mg, and 0.03 mg of each agent were examined. The highest amount of an agent that caused no effect on bacterial growth was used in further experiments.

[12] = system: K. pneumoniae ATCC 700603 ESBL(+); test: as above; format: cell-based; conditions: Klebsiella pneumoniae, ATCC700603; 0.3 mg per disc; - no zone; read-out: Diameter of inhibition zone around disc with tested agent
Description: as §3

[13] = system: K. pneumoniae ATCC BAA 1705 KPC(+); test: as above; format: cell-based; conditions: Klebsiella pneumoniae, BAA1705; 0.3 mg per disc; - no zone; read-out: Diameter of inhibition zone around disc with tested agent
Description: as §3

[14] = system: P. aeruginosa MUW 700 AmpC(+); test: as above; format: cell-based; conditions: Pseudomonas aeruginosa; 0.3 mg per disc; - no zone; read-out: Diameter of inhibition zone around disc with tested agent
Description: as §3

OB(O)c1ccccc1B(O)O [3a, phenylene-1,2-diboronic acid]
MIC (C. krusei ATCC 6258): 400 µg/mL (≈ 2410 µM)
MIC (E. coli 76 KPC-2(+)): 400 µg/mL
MIC (E. coli 77 CMY-2(+) [1]): 400 µg/mL
MIC [2]: 400 µg/mL
MIC [3]: 400 µg/mL
MIC [4]: 400 µg/mL
MIC [5]: 400 µg/mL
Average FICI with ERT [6]: 0.23
Average FICI with IMI [6]: 0.13
Average FICI with MEM [6]: 0.17
The lowest FICI with ERT [6]: 0.17
The lowest FICI with IMI [6]: 0.10
The lowest FICI with MEM [6]: 0.10
Average FICI with ERT [7]: 0.14
Average FICI with IMI [7]: 0.13
Average FICI with MEM [7]: 0.10
The lowest FICI with ERT [7]: 0.07
The lowest FICI with IMI [7]: 0.10
The lowest FICI with MEM [7]: 0.07
Average FICI with ERT [8]: 0.17
Average FICI with IMI [8]: 0.17
Average FICI with MEM [8]: 0.13
The lowest FICI with ERT [8]: 0.10
The lowest FICI with IMI [8]: 0.10
The lowest FICI with MEM [8]: 0.06
Average FICI with ERT [9]: 0.32
Average FICI with IMI [9]: 0.19
Average FICI with MEM [9]: 0.32
The lowest FICI with ERT [9]: 0.17
The lowest FICI with IMI [9]: 0.15
The lowest FICI with MEM [9]: 0.17
Average FICI with ceftazidime [10]: 0.61
Interpretation of the average FICI with ceftazidime [10]: I (0.5 < FICI ≤ 4, indifference)
Interpretation of the lowest FICI with ceftazidime [10]: S (FICI ≤ 0.5, synergy)
The lowest FICI with ceftazidime [10]: 0.29
carbapenems' MIC reduction, up to (KPC producers; agent 4 mg/L): ≤ 8 fold
carbapenems' MIC reduction, up to (KPC producers; agent 8 mg/L): up to 16 fold
carbapenems' MIC reduction, up to (KPC producers; agent 16 mg/L): up to 64 fold
fractional inhibitory concentrations indices with carbapenems (KPC producers; checkerboard assays): 0.1–0.32

OB(O)c1cc(F)c(F)c(B(O)O)c1 [2d]
MIC (C. krusei ATCC 6258): 400 µg/mL (≈ 1980 µM)
zone of inhibition at 300 µg/disc (E. coli 77 CMY-2(+) [11]): 15 mm
zone of inhibition at 300 µg/disc [12]: 11 mm
zone of inhibition at 300 µg/disc [13]: 11 mm
zone of inhibition at 300 µg/disc [14]: 12 mm
MIC (E. coli 76 KPC-2(+)): 200 µg/mL
MIC (E. coli 77 CMY-2(+) [1]): 200 µg/mL
MIC [2]: 400 µg/mL
MIC [3]: 400 µg/mL
MIC [4]: 400 µg/mL
MIC [5]: > 400 µg/mL
Average FICI with ceftazidime [10]: 0.35
Interpretation of the average FICI with ceftazidime [10]: S (FICI ≤ 0.5, synergy)
Interpretation of the lowest FICI with ceftazidime [10]: S (FICI ≤ 0.5, synergy)
The lowest FICI with ceftazidime [10]: 0.26

OB(O)c1cc(Br)c(B(O)O)cc1Br [1i]
zone of inhibition at 0.4 mg/disc (C. krusei ATCC 6258; 0.4 mg per disc, 9 mm disc (fluconazole 0.025 mg, 6 mm disc), - no zone, read-out: Diameter of inhibition zone): 22 mm
MIC (C. krusei ATCC 6258): 50 µg/mL (≈ 155 µM)
zone of inhibition at 300 µg/disc (E. coli 77 CMY-2(+) [11]): 16 mm
zone of inhibition at 300 µg/disc [12]: 13 mm
zone of inhibition at 300 µg/disc [13]: 15 mm
zone of inhibition at 300 µg/disc [14]: 12 mm
MIC (E. coli 76 KPC-2(+)): 100 µg/mL
MIC (E. coli 77 CMY-2(+) [1]): 100 µg/mL
MIC [2]: 200 µg/mL
MIC [3]: 200 µg/mL
MIC [4]: 200 µg/mL
MIC [5]: > 400 µg/mL

OB(O)c1cc(F)cc(B(O)O)c1 [2b]
MIC (C. krusei ATCC 6258): > 400 µg/mL
zone of inhibition at 300 µg/disc (E. coli 77 CMY-2(+) [11]): 13 mm
zone of inhibition at 300 µg/disc [14]: 11 mm
MIC (E. coli 76 KPC-2(+)): 400 µg/mL
MIC (E. coli 77 CMY-2(+) [1]): 400 µg/mL
MIC [2]: > 400 µg/mL
MIC [3]: > 400 µg/mL
MIC [4]: > 400 µg/mL
MIC [5]: > 400 µg/mL
Average FICI with ceftazidime [10]: 0.35
Interpretation of the average FICI with ceftazidime [10]: S (FICI ≤ 0.5, synergy)
Interpretation of the lowest FICI with ceftazidime [10]: S (FICI ≤ 0.5, synergy)
The lowest FICI with ceftazidime [10]: 0.26
